Read-outs that look alike come from different tables or passages of the source.
Key:
[1] = tested on: LTB4 production in MC/9 cells; assay: MC/9 HPLC assay, inhibition of LTB4 production; type: cell-based; details: Mus musculus
Outline: (§1)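 MC/9 cells (3×10^6 in HBSS) pre-incubated 30 min with compound, then stimulated 20 min at room temperature with 1 μM A23187. After methanol quench and C18 solid-phase extraction, LTB4 and LTC4 quantified by HPLC against reference standards; inhibition relative to control samples.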

AA-induced ear edema = assay: Arachidonic acid (AA) induced mouse ear edema model; type: in vivo, CD-1 mice; details: 4 hrs and 1 hr before AA 2 mg/ear, mice; for % Inhibition AA-Induced ear edema (0.3 mg/ear): topical 0.3 mg/ear; for % Inhibition AA-Induced ear edema (1 mg/ear): topical 1 mg/ear
Method: One group serves as a control and receives 20 μL of vehicle applied to the pinna of each ear (10 μL to the inside and 10 μL to the outside of the pinna). One or more additional groups serve as test groups. The test compound was applied to the pinna of one ear of the mouse in a 20 μL volume (10 μL to the inside and 10 μL to the outside of the pinna). Test compound or control vehicle (acetone/1% DMSO) was applied topically to the right ear 4 and 1 hour before the application of 2 mg/ear AA as a stimulus to both the inner and outer surfaces of CD-1 mice. The left ears received vehicle (acetone/1% DMSO) alone. The animal was lightly anesthetized again using isofluorane to enable application of the stimulus. For the control group, arachidonic acid (2 mg/ear) was applied as the stimulus to the pinna of one ear only, in a total volume of 20 μL of acetone (10 μL applied to the inside and 10 μL to the outside of the pinna). The other ear received 20 μL of acetone. This served to determine the increase in ear weight due to arachidonic acid in the absence of test compounds. For the test groups, arachidonic acid (2 mg/ear) was applied as the stimulus to the pinna of each ear, in a total volume of 20 μL of acetone (10 μL applied to the inside and 10 μL to the outside of the pinna). The animal was allowed to recover after application of the stimulus in each case. After 60 minutes the animal was euthanized and a standard biopsy sample was taken from each ear using a 6 mm skin biopsy punch (Acuderm). Ear edema was determined by the increase in weight of the tissue due to accumulation of fluid as a result of plasma extravasation. The ears were weighed separately using a balance suitable to record 0.1 mg. For the control group, the difference in ear weights was determined by subtracting the weight of the unstimulated ear from the stimulated ear, and this was a measure of the increase in ear weight due to edema. The percentage increase in ear weight was determined by dividing the increase in stimulated ear weight by the unstimulated ear weight and multiplying by 100. For the test groups, the difference in ear weights was determined by subtracting the weight of the untreated ear from the weight of the ear treated with test compound. The percent inhibition of the increase in ear weight for ears treated with the test compound was estimated by first subtracting the mean ear weight of the untreated controls from each tissue to determine the increase in tissue weight due to application of the arachidonic acid. The percent inhibition=1−(test drug stimulated ear (mg)/control stimulated ear (mg))×100. In Table 5, the data from inhibition of AA-induced ear edema in mice by topical application of compounds is provided. Compounds (0.3 or 1 mg/ear) were applied topically to the ear 4 hrs and 1 hr prior to application of arachidonic acid (AA; 2 mg/ear).

[2] = tested on: LTC4 production in MC/9 cells; assay: MC/9 HPLC assay, inhibition of LTC4 production; type: cell-based; details: Mus musculus; for inhibition at 3 µM: MC9, 3 μM, A23187 stimulated
Outline: as §1

[3] = tested on: LTB4 production in porcine or human whole blood; assay: Whole blood HPLC assay, inhibition of LTB4 production; type: cell-based; details: 5 point curve, porcine or human whole blood (not specified)
Outline: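 Porcine or human whole blood was pre-incubated 30 min with compound, then stimulated 20 min at room temperature with 20 μM A23187 (porcine blood also received 20 μM arachidonic acid). Plasma LTB4 was extracted on C18 and quantified by HPLC against reference standards. IC50 from a 5-point curve, with inhibition relative to controls.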

[4] = MC9, Table 2 column 4, no concentration in head (1 μM according to b732), read-out: % Inhibition LTB4
[5] = MC9, Table 2 column 3, no concentration in head (1 μM according to b732), read-out: % Inhibition LTC4

| SMILES | inhibition at 1 µM ([1]; MC9, 1 μM, read-out: % inhibition LTB4 (1 μM)) [%] | inhibition at 1 µM [1, 4] [%] | % Inhibition AA-Induced ear edema (0.3 mg/ear) (AA-induced ear edema) | % Inhibition AA-Induced ear edema (1 mg/ear) (AA-induced ear edema) | inhibition at 1 µM ([2]; MC9, 1 μM, read-out: % inhibition LTC4 (1 μM)) [%] | inhibition at 3 µM [2] [%] | inhibition at 1 µM [2, 5] [%] | IC50 [3] [nM] |
| --- | --- | --- | --- | --- | --- | --- | --- | --- |
| CCC(O)(CCc1ccc(Oc2nc3c(SC)cccc3s2)c(OC)c1)C(F)(F)F (centres unmarked) [Compound 104, 1-{3-methoxy-4-[(4-methylsulfanyl-1,3-benzothiazol-2-yl)oxy]phenyl}-3-(trifluoromethyl)pentan-3-ol] | 90 | > 90 | 30-50% | 50-70% | 90 | > 90 | > 90 | 100 to 1000 |
| CC(O)(CCc1ccc(OCc2ccc3ccccc3n2)cc1)C(F)(F)F (centres unmarked) [Compound 183, 1,1,1-trifluoro-2-methyl-4-[4-(quinolin-2-ylmethoxy)phenyl]butan-2-ol] | – | > 90 | 30-50% | >90% | – | > 90 | > 90 | 100 to 1000 |

Reference: patent US12686668B2, “Leukotriene synthesis inhibitors” (Naegis Pharmaceuticals Inc., priority 2019, dated 2026)
